Experimental data: patent US5480777A (priority 1995, dated 1996)
Where “and” joins values, the source holds several entries; their conditions need not be identical. Equal entries are not always repeated.

Tested on: phosphoenolpyruvate carboxylase (PEPC)
Assay type: biochemical, wheat germ

| Compound | k × 10^3 | T1/2 (half-life seconds) |
| --- | --- | --- |
| N#CS [KSCN, potassium thiocyanate] | 4.67 and 4.70 and 4.72 and 4.62 and 4.55 and 4.46 |  |
| [K+].[O-][Cl+2]([O-])[O-] [KClO3] | 24 |  |
| [I-].[K+] [KI] | 12 |  |
| [K+].[O-][Cl+3]([O-])([O-])[O-] [KClO4] | 6.3 | 1.73 min |
